Where a name gives a salt, the structure may show the parent alone. Bounds are passed on as bounds.

The target of the first assay is ROCK2 (Homo sapiens, UniProt O75116). The assay can be described thus: ROCK2 kinase inhibition assay (LABCHIP 3000 Reader, FITC peptide substrate).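 Note: rho kinase reaction read by separating phosphorylated from unphosphorylated peptide on chip, with inhibition of kinase activity computed per concentration across a dose-response series.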
ROCK2, sequence (O75116 whole entry, species assumed): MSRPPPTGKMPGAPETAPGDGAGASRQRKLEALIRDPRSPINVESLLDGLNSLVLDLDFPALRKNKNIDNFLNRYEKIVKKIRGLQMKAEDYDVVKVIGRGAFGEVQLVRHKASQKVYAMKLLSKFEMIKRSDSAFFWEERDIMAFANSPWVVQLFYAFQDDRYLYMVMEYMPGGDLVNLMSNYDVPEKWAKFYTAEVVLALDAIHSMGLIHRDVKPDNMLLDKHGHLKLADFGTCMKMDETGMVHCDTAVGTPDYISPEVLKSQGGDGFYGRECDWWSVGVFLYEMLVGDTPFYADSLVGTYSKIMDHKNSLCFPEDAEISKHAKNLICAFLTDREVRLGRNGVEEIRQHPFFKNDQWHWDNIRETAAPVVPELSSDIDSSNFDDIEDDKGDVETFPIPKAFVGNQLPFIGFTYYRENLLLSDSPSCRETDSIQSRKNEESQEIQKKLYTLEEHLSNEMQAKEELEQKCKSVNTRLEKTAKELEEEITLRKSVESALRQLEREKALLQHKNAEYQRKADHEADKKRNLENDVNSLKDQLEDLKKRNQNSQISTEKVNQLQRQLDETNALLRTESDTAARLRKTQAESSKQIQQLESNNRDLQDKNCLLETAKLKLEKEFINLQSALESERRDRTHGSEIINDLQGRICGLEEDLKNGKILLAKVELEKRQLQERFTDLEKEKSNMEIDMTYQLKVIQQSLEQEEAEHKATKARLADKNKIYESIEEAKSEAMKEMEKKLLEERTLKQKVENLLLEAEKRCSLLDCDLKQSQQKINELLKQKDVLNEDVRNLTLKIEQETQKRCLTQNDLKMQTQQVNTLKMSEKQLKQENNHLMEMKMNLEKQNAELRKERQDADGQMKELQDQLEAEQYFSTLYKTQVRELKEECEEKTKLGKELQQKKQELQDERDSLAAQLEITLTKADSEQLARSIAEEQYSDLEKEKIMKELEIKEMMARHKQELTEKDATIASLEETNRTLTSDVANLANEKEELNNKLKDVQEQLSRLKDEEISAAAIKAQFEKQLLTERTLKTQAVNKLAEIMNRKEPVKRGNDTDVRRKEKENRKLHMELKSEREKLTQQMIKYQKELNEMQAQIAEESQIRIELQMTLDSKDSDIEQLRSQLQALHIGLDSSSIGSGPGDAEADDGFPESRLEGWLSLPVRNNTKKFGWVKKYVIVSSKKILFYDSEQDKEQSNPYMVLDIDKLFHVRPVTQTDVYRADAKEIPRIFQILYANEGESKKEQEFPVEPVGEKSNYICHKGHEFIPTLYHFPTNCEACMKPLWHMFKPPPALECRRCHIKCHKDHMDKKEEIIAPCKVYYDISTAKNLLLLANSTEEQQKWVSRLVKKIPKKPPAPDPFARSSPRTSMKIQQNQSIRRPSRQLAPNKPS
Settings: not given
For the molecule `CC(C)(O)COc1ccc2c(C(=O)NC3CC4(C3)CC(Oc3cc(-c5ccccc5F)ccc3C(N)=O)C4)cnn2c1` (stereo not shown) [Example 229, N-(6-((4-carbamoyl-2′-fluoro-[1,1′-biphenyl]-3-yl)oxy)spiro[3.3]heptan-2-yl)-6-(2-hydroxy-2-methylpropoxy)pyrazolo[1,5-a]pyridine-3-carboxamide], the IC50 (in general, the point on the concentration scale where inhibition reaches its midpoint) lay in the range of 5 to 50 nM.

On to `CN(C)CCNC(=O)c1cccc(-c2ccc(C(N)=O)c(OC3CC4(CC(NC(=O)c5cnn6cc(OCC(C)(C)O)ccc56)C4)C3)c2)c1` (stereo not shown) [Example 285, N3-(2-(dimethylamino)ethyl)-3′-((6-(6-(2-hydroxy-2-methylpropoxy)pyrazolo[1,5-a]pyridine-3-carboxamido)spiro[3.3]heptan-2-yl)oxy)-[1,1′-biphenyl]-3,4′-dicarboxamide], for which the IC50 fell in the range of 5 to 50 nM.

Regarding `Cc1c(-c2cc(C#N)cc(C(=O)N[C@H]3CC4(C3)C[C@H](Oc3ncccc3C(N)=O)C4)c2)cnn1C` (stereo partly drawn) [Example 185, 2-(((aR)-6-(3-cyano-5-(1,5-dimethyl-1H-pyrazol-4-yl)benzamido)spiro[3.3]heptan-2-yl)oxy)nicotinamide, trifluoroacetate], the IC50 was less than 5 nM.

Consider `Cn1c(C(=O)N[C@H]2CC3(C2)C[C@H](Oc2ncccc2C(N)=O)C3)cc2ccc(Cl)cc21` (stereo partly drawn) [Example 154, N-((aR)-6-((3-carbamoylpyridin-2-yl)oxy)spiro[3.3]heptan-2-yl)-6-chloro-1-methyl-1H-indole-2-carboxamide], for which the IC50 lay within 50 to 250 nM.

Regarding `NC(=O)c1cccnc1O[C@H]1CC2(C[C@H](NC(=O)c3cnc4cc(N5CC[C@H](F)C5)ccn34)C2)C1` (stereo partly drawn) [Example 322, N-((aR)-6-((3-carbamoylpyridin-2-yl)oxy)spiro[3.3]heptan-2-yl)-7-((S)-3-fluoropyrrolidin-1-yl)imidazo[1,2-a]pyridine-3-carboxamide], the 50% inhibitory concentration (IC50) was less than 5 nM.

For `CC(C)(O)COc1ccc2c(C(=O)N[C@H]3CC4(C3)C[C@H](Oc3ncccc3C(N)=O)C4)cnn2c1N1CCCCC1=O` (atropisomer, axis not shown; (aR)) [Example 69, N-((aR)-6-((3-carbamoylpyridin-2-yl)oxy)spiro[3.3]heptan-2-yl)-6-(2-hydroxy-2-methylpropoxy)-7-(2-oxopiperidin-1-yl)pyrazolo[1,5-a]pyridine-3-carboxamide, trifluoroacetate], the IC50 was in the range of 50 to 250 nM.

`[H][C@]1(Oc2ncccc2C(N)=O)C[C@@]2(C[C@H](NC(=O)c3cn4cc(C(N)=O)ccc4n3)C2)C1` (stereo partly drawn) [Example 63, N^2-((aR)-6-((3-carbamoylpyridin-2-yl)oxy)spiro[3.3]heptan-2-yl)imidazo[1,2-a]pyridine-2,6-dicarboxamide] registered an IC50 of 250 to 2500 nM.

`COc1ccc2c(c1)CCN2C(=O)N[C@H]1CC2(C1)C[C@H](Oc1ccccc1C(N)=O)C2` (stereo partly drawn) [Example 38, N-[(aR)-6-(2-carbamoylphenoxy)spiro [3.3]heptan-2-yl]-5-methoxy-2,3-dihydro-1H-indole-1-carboxamide] yielded an IC50 of 5 to 50 nM.

`NC(=O)c1cccnc1O[C@H]1CC2(C[C@H](NC(=O)c3cnn4cc(OCCn5ccnc5)ccc34)C2)C1` (stereo partly drawn) [Example 120, 6-(2-(1H-imidazol-1-yl)ethoxy)-N-((aR)-6-((3-carbamoylpyridin-2-yl)oxy)spiro[3.3]heptan-2-yl)pyrazolo[1,5-a]pyridine-3-carboxamdie, trifluoroacetate] had an IC50 of 5 to 50 nM.

In turn, `NC(=O)c1ccccc1O[C@H]1CC2(C[C@H](NC(=O)c3cnc4cc(N5CCOCC5)ccn34)C2)C1` (stereo partly drawn) [Example 29, N-[(aR)-6-(2-carbamoylphenoxy)spiro [3.3]heptan-2-yl]-7-(morpholin-4-yl)imidazo[1,2-a]pyridine-3-carboxamide] showed an IC50 of 5 to 50 nM.

With `N#Cc1cc(C(=O)N[C@H]2CC3(C2)C[C@H](Oc2ncccc2C(N)=O)C3)cc(C2CC2)c1` (stereo partly drawn) [Example 183, 2-(((aR)-6-(3-cyano-5-cyclopropylbenzamido)spiro[3.3]heptan-2-yl)oxy) nicotinamide, trifluoroacetate], the IC50 lay within 5 to 50 nM.

The molecule `CC(C)(O)Cn1cc(-c2ccc3c(C(=O)N[C@H]4CC5(C4)C[C@H](Oc4ncccc4C(N)=O)C5)nnn3c2)cn1` (stereo partly drawn) [Example 365, N-((aR)-6-((3-carbamoylpyridin-2-yl)oxy)spiro[3.3]heptan-2-yl)-6-(1-(2-hydroxy-2-methylpropyl)-1H-pyrazol-4-yl)-[1,2,3]triazolo[1,5-a]pyridine-3-carboxamide] showed an IC50 of 5 to 50 nM.

In turn, `CC(C)(O)COc1ccc2c(C(=O)NC3CC4(C3)CC(Oc3cc(-n5cccn5)ccc3C(N)=O)C4)cnn2c1` (stereo not shown) [Example 223, N-(6-(2-carbamoyl-5-(1H-pyrazol-1-yl)phenoxy)spiro[3.3]heptan-2-yl)-6-(2-hydroxy-2-methylpropoxy)pyrazolo[1,5-a]pyridine-3-carboxamide] yielded an IC50 of 5 to 50 nM.

In the case of `CN1CCN(CCCc2ccc(C(N)=O)c(OC3CC4(CC(NC(=O)c5cnn6c(C7CC7)c(OCC(C)(C)O)ccc56)C4)C3)c2)CC1` (stereo not shown) [Example 267, N-(6-(2-carbamoyl-5-(3-(4-methylpiperazin-1-yl)propyl)phenoxy)spiro[3.3]heptan-2-yl)-7-cyclopropyl-6-(2-hydroxy-2-methylpropoxy)pyrazolo[1,5-a]pyridine-3-carboxamide], the concentration for half-maximal inhibition (IC50) is 5 to 50 nM.

As for `NC(=O)c1cccnc1O[C@H]1CC2(C[C@H](NC(=O)c3cnn4cc(OCCOC(F)(F)F)ccc34)C2)C1` (stereo partly drawn) [Example 125, N-((aR)-6-((3-carbamoylpyridin-2-yl)oxy)spiro[3.3]heptan-2-yl)-6-(2-(trifluoromethoxy)ethoxy) pyrazolo[1,5-a] pyridine-3-carboxamide, t rifluoroacetate], the 50% inhibitory concentration (IC50) was in the range of 5 to 50 nM.

On to `NC(=O)c1cccnc1OC1CC2(CC(NC(=O)c3cnn(-c4cccc(Cl)c4)c3)C2)C1` (stereo not shown) [Example 394], for which the IC50 was 5 to 50 nM.

`CC(C)(O)COc1ccc2c(C(=O)NC3CC4(C3)CC(Oc3cc(-c5cccc(OCC(F)(F)F)c5)ccc3C(N)=O)C4)cnn2c1` (stereo not shown) [Example 238, N-(6-((4-carbamoyl-3′-(2,2,2-trifluoroethoxy)-[1,1′-biphenyl]-3-yl)oxy)spiro[3.3]heptan-2-yl)-6-(2-hydroxy-2-methylpropoxy)pyrazolo[1,5-a]pyridine-3-carboxamide] had a concentration for half-maximal inhibition (IC50) of 50 to 250 nM.

In turn, `NC(=O)c1cccnc1O[C@H]1CC2(C[C@H](NC(=O)c3cnn4cc(OC(F)F)ccc34)C2)C1` (stereo partly drawn) [Example 312, N-((aR)-6-((3-carbamoylpyridin-2-yl)oxy)spiro[3.3]heptan-2-yl)-6-(difluoromethoxy)pyrazolo[1,5-a]pyridine-3-carboxamide] displayed an IC50 of 5 to 50 nM.

As for `N#Cc1cc(C(=O)N[C@H]2CC3(C2)C[C@H](Oc2ncccc2C(N)=O)C3)cc(-c2ccc3c(c2)CCC(=O)N3)c1` (stereo partly drawn) [Example 189, 2-((aR)-6-(3-cyano-5-(2-oxo-1,2,3,4-tetrahydroquinolin-6-yl)benzamido)spiro[3.3]heptan-2-yl)oxy)nicotinamide, trifluoroacetate], the IC50 is less than 5 nM.

Consider `N#Cc1ccn2c(C(=O)N[C@H]3CC4(C3)C[C@H](Oc3ncccc3C(N)=O)C4)cnc2c1` (stereo partly drawn) [Example 353, N-((aR)-6-((3-carbamoylpyridin-2-yl)oxy)spiro[3.3]heptan-2-yl)-7-cyanoimidazo[1,2-a]pyridine-3-carboxamide], for which the IC50 is 50 to 250 nM.

Regarding `COc1cccc(C(N)=O)c1OC1CC2(CC(NC(=O)c3cnn4c(C5CC5)c(OCC(C)(C)O)ccc34)C2)C1` (stereo not shown) [Example 208, N-(6-(2-carbamoyl-6-methoxyphenoxy)spiro[3.3]heptan-2-yl)-7-cyclopropyl-6-(2-hydroxy-2-methylpropoxy)pyrazolo[1,5-a]pyridine-3-carboxamide], the IC50 lay within 250 to 2500 nM.

Consider `NC(=O)c1cccnc1O[C@H]1CC2(C[C@H](NC(=O)c3cnc4cc(N5CCC(F)(F)C5)ccn34)C2)C1` (stereo partly drawn) [Example 323, N-((aR)-6-((3-carbamoylpyridin-2-yl)oxy)spiro[3.3]heptan-2-yl)-7-(3,3-difluoropyrrolidin-1-yl)imidazo[1,2-a]pyridine-3-carboxamide], for which the concentration for half-maximal inhibition (IC50) was less than 5 nM.

Staying with this assay, now noted: read-out: ROCK2 Activity (ROCK2 IC50); 5 μM ATP, 1.5 μM peptide substrate, pH 7.5.
On to `Cn1cc(-c2ccc3c(C(=O)NC4CC5(C4)CC(Oc4ncccc4C(N)=O)C5)nn(CC4(O)CCC4)c3c2)cn1` [Example 405, N-((aR)-6-((3-carbamoylpyridin-2-yl)oxy)spiro[3.3]heptan-2-yl)-1-((1-hydroxycyclobutyl)methyl)-6-(1-methyl-1H-pyrazol-4-yl)-1H-indazole-3-carboxamide, TFA], for which the IC50 is less than 5 nM.

Turning to `Cc1nc(C(=O)NC2CC3(C2)CC(Oc2ncccc2C(N)=O)C3)c2ccc(Br)cn12` [Example 457, 6-bromo-N-((aR)-6-((3-carbamoylpyridin-2-yl)oxy)spiro[3.3]heptan-2-yl)-3-methylimidazo[1,5-a]pyridine-1-carboxamide], the IC50 was 50 to 250 nM.

Turning to `NC(=O)c1cccnc1OC1CC2(CC(NC(=O)c3nc(C(F)(F)F)n4cc(Br)ccc34)C2)C1` [Example 429, 6-bromo-N-((aR)-6-((3-carbamoylpyridin-2-yl)oxy)spiro[3.3]heptan-2-yl)-3-(trifluoromethyl)imidazo[1,5-a]pyridine-1-carboxamide], the IC50 lay within 5 to 50 nM.

As to `Cn1cncc1-c1ccc2c(C(=O)NC3CC4(C3)CC(Oc3ncccc3C(N)=O)C4)nc(C(F)F)n2c1` [Example 437, N-((aR)-6-((3-carbamoylpyridin-2-yl)oxy)spiro[3.3]heptan-2-yl)-3-(difluoromethyl)-6-(1-methyl-1H-imidazol-5-yl)imidazo[1,5-a]pyridine-1-carboxamide], the IC50 lay in the range of 5 to 50 nM.

For `Cc1c(C(=O)N[C@H]2CC3(C2)C[C@H](Oc2ncccc2C(N)=O)C3)cnn1-c1ccc(C#N)cc1F` (stereo partly drawn) [Example 388, N-[(aR)2-({6-[1-(4-cyano-2-fluorophenyl)-5-methyl-1H-pyrazole-4-amido]spiro[3.3]heptan-2-yl}oxy)pyridine-3-carboxamide 1 trifluoroacetic acid salt], the IC50 lay in the range of 50 to 250 nM.

As to “2-((aR)-6- (1-phenyl-1H- pyrazole-4- carboxamido) spiro[3.3]- heptan-2-yl)oxy) nicotinamide, trifluoroacetate [Example 73]”, the half-inhibitory concentration (IC50) lay within 5 to 50 nM.

Source of the values: patent US10829501B2 (BRISTOL-MYERS SQUIBB COMPANY, priority 2016, dated 2020).
